Test results published in patent publication US5190981A, “Formulation containing S(+) enantiomer of flurbiprofen or ketoprofen and method of use for oral administration for prevention and treatment of bone loss associated with periodontal disease” (Sepracor Inc., priority 1991, dated 1993).

What was measured:
[1] = oral; cited from earlier work
[2] = Bioavailability of flurbiprofen enantiomers in toothpaste: five-way blinded crossover, blood levels over 24 h after toothbrushing, chiral HPLC; type: in vivo, human (healthy adult volunteers); details: for initial plasma concentrations of each enantiomer across formulations: from toothpaste formulation to toothpaste formulation; for initial plasma concentrations of each enantiomer across formulations / accumulation of enantiomers: data not shown; for accumulation of enantiomers: repeated use
Description: The purpose of this study was to show how well subjects tolerated three strengths of S(+) flurbiprofen toothpaste (1%, 0.5% and 0.25%), as well as the relationship between dose and blood level of the active isomer in comparison with an identical formulation of racemic flurbiprofen (1%) or an intermediate formulation of 80% S(+) flurbiprofen and 20% R(-) flurbiprofen (1%). A toothpaste containing one of the three concentrations of S(+) flurbiprofen, the 1% intermediate formulation or 1% racemic flurbiprofen were used in the study.
The drug is an acid and, therefore, the formulation was adjusted to pH 5.6, in order to improve buccal absorption. The formulation also contained menthol or wintergreen in order to mask the slight bitter taste of the drug. Standard formulation techniques were used.
Eight healthy adult volunteers were selected as subjects for the five-way, blinded, crossover study of flurbiprofen blood levels over a 24 hour period following toothbrushing with toothpastes containing the different concentrations of S(+) flurbiprofen and R(-) flurbiprofen. Each volunteer brushed with about 1 g of a toothpaste formulation for 1 minute followed by rinsing twice daily for 3 days. On the fourth morning, brushing with 1 g of the toothpaste formulation was repeated and blood samples were collected for subsequent analysis at -0.25, 0.25, 1, 2, 4, 8, 12, 23 and 24 hours relative to this toothbrushing episode. Each treatment period was followed by a washout interval of 4 days before the next toothpaste formulation was provided.
The concentration of the individual enantiomers was determined by HPLC on chiral-APG (5μ. 100×4 mm). The mobile phase was 1% 2-propanol in 10 mM NaH2 PO4 buffer, pH 7.0, at 0.6 ml/min. The enantiomers were detected by fluorescence monitoring with excitation at 250 nm and emission at 315 nm. The individual enantiomers were detectable down to 5-10 ng/ml. Standard and calibration curves were prepared for each set of samples and an internal standard of S(+) ibuprofen was added to all samples. Pharmacokinetic calculations were non-compartmental and employed conventional data analysis (linear trapezoidal role) to determine the concentrations or total amounts for each enantiomer and formulation that were analyzed.
The results of this study are presented as follows: 1% by weight racemic flurbiprofen (1S, 1R); 1% by weight 80% S(+) flurbiprofen, 20% R(-) flurbiprofen as a eutectic mixture (2S, 2R); 1% by weight 95% S(+) flurbiprofen, 5% R(-) flurbiprofen (3S); 0.5% by weight 95% S(+) fluriprofen, 5% R(-) flurbiprofen (4S); and 0.25% by weight 95% S(+) flurbiprofen, 5% R(-) flurbiprofen (5S). It should be noted that approximately equivalent amounts (5 mg) of S(+)flurbiprofen were administered in results denoted 1S and 4S. The results from the present study have been further compared with calculations based on results from a previous study by Stalker et al. "Bioavailability of Flurbiprofen following Buccal Administration", Pharm Res. 8, 605-608 (1991). The calculated amounts of administered enantiomer in this previous study are 5 mg buccal S(+) flurbiprofen as a mouthwash (buccal S) or 5 mg PO S(+) flurbiprofen (PO S).

Row | Structure (SMILES) | absorption when taken orally [1] | absorption of S(+) enantiomer alone vs as racemic mixture ([2]; comparison of 1S and 4S, toothpaste) | blood concentration and persistence, toothpaste vs mouthwash or PO ([2]; equivalent amounts of S(+) flurbiprofen, e.g. 1S and 4S compared to buccal S or PO S) | initial plasma concentrations of each enantiomer across formulations [2] | dose relationship of plasma concentrations, 0.25% to 0.5% ([2]; toothpaste between 0.25% and 0.5% by weight) | dose relationship of plasma concentrations at 1% ([2]; toothpaste, 1% by weight) | accumulation of enantiomers ([2]; toothpaste)
1 | C[C@H](C(=O)O)c1ccc(-c2ccccc2)c(F)c1 [S(+) flurbiprofen] | readily absorbed | preferentially absorbed when administered alone in a toothpaste formulation than when administered as a racemic mixture | higher and its availability is more persistent when in a toothpaste formulation | approximately the same | dose dependent relationship of plasma concentrations | non-linear at 1% by weight | no accumulation
2 | C[C@@H](C(=O)O)c1ccc(-c2ccccc2)c(F)c1 [R(-) flurbiprofen] |  |  |  | approximately the same |  |  | no accumulation
